Data on seven compounds can be found in patent US4880636A, “Film coated tablet of ranitidine HCl” (priority 1988, dated 1989).

The nature of data set [1]: Cast film plasticizer comparison study (discoloration). Format: physicochemical. Set-up: key: 1 = least discoloration; 5 = greatest discoloration. Particulars: ranitidine HCl spread on cast HPMC film with plasticizer (0.2 gm per gram HPMC); 60 degrees centigrade/78.9% RH, approximately two weeks; visual. Here is the method: Cast film studies are performed using a typical film aqueous coating composition containing, on a per gram HPMC dry weight basis, plasticizer, 0.2 gm, and Opaspray (trademark of Colorcon, Inc., West Point, PA) colorant solids 0.5 gm. Cast films are prepared by adding 1.5 g of a 15% solids solution to a uniform plate, 42 mm in diameter, and drying at ambient temperature for at least 24 hours. Ranitidine HCl (1.5 gm), of particle size 50 to 200 microns, is then spread uniformly on the dried film coating and stored at 60 degrees centigrade/78.9% relative humidity (RH) for approximately two weeks. The RH is controlled by using a desiccator jar and a saturated KBr solution, which is maintained at 60° C. in a drying oven. […] After two weeks, the cast films are removed and visually examined for discoloration.

Data set [2] is described as follows: Compatibility of plasticizer with ranitidine HCl. Particulars: plasticizer in polymeric film coating of ranitidine HCl tablets.
For data set [3] the following is noted: cited from earlier work.
For data set [4] the following is noted: Physicians' Desk Reference, 41st ed., page 993 (1987); cited from earlier work.

Molecules are shown by their SMILES. Entries after “also recorded” stand apart in the source; their conditions may differ. Where a name gives a salt, the structure may show the parent alone.

With `OCC(O)CO` [Glycerol, glycerol], the “Cast Film Discoloration” value in data set [1] was found to be 5.
For `CC(O)CO` (centres unmarked) [Propylene Glycol, propylene glycol], the “Cast Film Discoloration” value in data set [1] stood at 2. The “reactivity with ranitidine HCl or promotion of its degradation” value (shortened to “reactivity”) in data set [2] is “promote degradation; also recorded: tend to react with ranitidine HCl or promote degradation at the tablets' surfaces”.
Regarding `CC(=O)OCC(COC(C)=O)OC(C)=O` [Triacetin, 1,2,3-propanetriol triacetate], the “Cast Film Discoloration” value in data set [1] turned out to be 1. The “reactivity” value in data set [2] was “essentially unreactive with ranitidine HCl”.
As for `CCOC(=O)CC(O)(CC(=O)OCC)C(=O)OCC` [Triethyl Citrate, triethyl citrate], the “Cast Film Discoloration” value in data set [1] amounted to 3.
On to `CCCCOC(=O)CCCCCCCCC(=O)OCCCC` [dibutyl sebecate], for which the “reactivity” value in data set [2] is listed as “tend to react with ranitidine HCl or promote degradation at the tablets' surfaces”.
On the same count and under the same terms, under `CCOC(=O)c1ccccc1C(=O)OCC` [diethyl phthalate] stands “tend to react with ranitidine HCl or promote degradation at the tablets' surfaces”.
In the case of `CNC(=C[N+](=O)[O-])NCCSCc1ccc(CN(C)C)o1` [ranitidine HCl], in data set [3] (25° C.), the solubility in water result is “greater than 900 mg/mL”. For the same compound, in data set [3], the “solubility in commonly used organic solvents” value was “very soluble”. For the same compound, the degradation upon aging result in data set [4] is “accelerated by heat, moisture and light”.
